What was measured:
[1] = molecular target: T1, Androgen receptor (Rattus norvegicus, UniProt P15207); experiment: (§1) Antagonist activity at rat androgen receptor fused with DNA-binding domain of GAL4 expressed in AR-UAS-bla GripTite 293 cells assessed as inhibition of R1881-induced receptor activation preincubated for 30 mins followed by R1881 addition measured after 16 to 24 hrs by betalactamase reporter gene assay; type: cell-based
T1 sequence (P15207 whole entry): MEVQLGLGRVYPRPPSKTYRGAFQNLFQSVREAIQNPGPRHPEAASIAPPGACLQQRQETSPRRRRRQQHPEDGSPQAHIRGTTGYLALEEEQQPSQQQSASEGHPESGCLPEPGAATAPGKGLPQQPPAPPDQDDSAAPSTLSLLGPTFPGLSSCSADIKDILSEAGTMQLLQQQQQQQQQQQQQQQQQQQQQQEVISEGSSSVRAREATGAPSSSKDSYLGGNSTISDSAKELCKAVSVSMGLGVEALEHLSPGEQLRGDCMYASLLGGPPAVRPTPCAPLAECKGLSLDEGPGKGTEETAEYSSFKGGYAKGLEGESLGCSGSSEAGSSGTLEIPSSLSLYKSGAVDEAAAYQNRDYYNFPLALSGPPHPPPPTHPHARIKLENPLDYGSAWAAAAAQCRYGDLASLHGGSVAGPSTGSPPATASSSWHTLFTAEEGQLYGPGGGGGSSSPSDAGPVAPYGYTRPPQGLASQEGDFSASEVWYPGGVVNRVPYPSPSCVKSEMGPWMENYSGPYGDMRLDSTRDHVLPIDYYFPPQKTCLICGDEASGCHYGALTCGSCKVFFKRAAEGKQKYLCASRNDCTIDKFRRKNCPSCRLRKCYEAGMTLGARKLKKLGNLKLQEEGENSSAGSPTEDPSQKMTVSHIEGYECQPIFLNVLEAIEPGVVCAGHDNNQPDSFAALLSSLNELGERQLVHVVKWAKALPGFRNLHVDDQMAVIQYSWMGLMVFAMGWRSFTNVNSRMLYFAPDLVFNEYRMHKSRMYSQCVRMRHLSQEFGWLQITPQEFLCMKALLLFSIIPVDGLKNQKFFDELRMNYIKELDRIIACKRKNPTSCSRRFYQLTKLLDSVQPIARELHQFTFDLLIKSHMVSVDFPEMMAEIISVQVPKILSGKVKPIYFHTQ

[2] = molecular target: T2, Androgen receptor (Rattus norvegicus) (UniProt P15207); experiment: as §1; type: cell-based
T2 sequence (whole entry): T1 sequence (P15207 whole entry)

[3] = test system: LNCaP; experiment: Antiproliferative activity against human LNCAP cells after 96 hrs by propidium iodide staining based fluorescence 2D monolayer assay; type: functional, cell-based
[4] = 33000 µM
Description: Solubility in 100% DMSO at 33 mM at -20 degC

[5] = test system: VCaP; experiment: Antiproliferative activity against human VCaP cells after 96 hrs by propidium iodide staining based fluorescence 2D monolayer assay; type: functional, cell-based
[6] = test system: CWR22R; experiment: Antiproliferative activity against human 22Rv1 cells after 96 hrs by propidium iodide staining based fluorescence 2D monolayer assay; type: functional, cell-based; conditions: 22Rv1, 96 h
[7] = 96 h
Description: Solubility in RPMI1640 culture medium at <30 uM incubated for 4 days by microscopic analysis

[8] = test system: DU-145; experiment: Antiproliferative activity against human DU145 cells after 96 hrs by propidium iodide staining based fluorescence 2D monolayer assay; type: functional, cell-based; conditions: DU-145, 96 h
[9] = test system: LNCaP; experiment: Antiproliferative activity against human LNCAP cells assessed as relative inhibition after 96 hrs by propidium iodide staining based fluorescence 2D monolayer assay; type: functional, cell-based
[10] = test system: VCaP; experiment: Antiproliferative activity against human VCaP cells assessed as relative inhibition after 96 hrs by propidium iodide staining based fluorescence 2D monolayer assay; type: functional, cell-based
[11] = test system: DU-145; experiment: Antiproliferative activity against human DU145 cells assessed as relative inhibition after 96 hrs by propidium iodide staining based fluorescence 2D monolayer assay; type: functional, cell-based; conditions: DU-145, 96 h
[12] = test system: CWR22R; experiment: Antiproliferative activity against human 22Rv1 cells assessed as relative inhibition after 96 hrs by propidium iodide staining based fluorescence 2D monolayer assay; type: functional, cell-based; conditions: 22Rv1, 96 h

CC1(C)C(=O)N(c2ccc(C(F)(F)F)cc2)C(=O)N1c1ccc([N+](=O)[O-])cc1C(F)(F)F
IC50 [1]: 0.265 µM | inhibition [2]: Dose-dependent effect | IC50 [3]: 3.73 µM | solubility [4]: Soluble | IC50 [5]: 100 µM | IC50 [6]: 16.4 µM | solubility [7]: Soluble | IC50 [8]: 100 µM

O=C(Nc1ccc([N+](=O)[O-])c(C(F)(F)F)c1)C(O)(CSc1ccccc1C(F)(F)F)C(F)(F)F (stereo unspecified)
IC50 [9]: 0.828 µM | IC70 [9]: 1.33 µM | IC50 [1]: 0.245 µM | inhibition [2]: Dose-dependent effect | IC50 [3]: 0.719 to 0.72 µM | IC70 [3]: 1.2 µM | IC50 [10]: 2.43 µM | IC70 [10]: 4.8 µM | IC50 [11]: 2.36 µM | IC70 [11]: 2.7 µM | IC50 [12]: 1.27 µM | IC70 [12]: 1.65 µM | solubility [4]: Soluble | IC50 [5]: 2.78 µM | IC70 [5]: 5.73 µM | IC50 [6]: 1.28 µM | IC70 [6]: 1.7 µM | solubility [7]: Soluble | IC50 [8]: 2.4 µM | IC70 [8]: 2.76 µM

CC1(C)C(=O)N(c2ccc(C(F)(F)F)cc2)C(=O)N1c1ccc(C#N)cc1C(F)(F)F
IC50 [1]: 0.402 µM | inhibition [2]: Dose-dependent effect | IC50 [3]: 8.36 µM | solubility [4]: Soluble | IC50 [5]: 100 µM | IC50 [6]: 100 µM | solubility [7]: Soluble | IC50 [8]: 100 µM

CC1(C)C(=O)N(c2cccc(C(F)(F)F)c2)C(=O)N1c1ccc([N+](=O)[O-])cc1C(F)(F)F
IC50 [1]: 0.111 µM | inhibition [2]: Dose-dependent effect | IC50 [3]: 4.07 µM | solubility [4]: Soluble | IC50 [5]: 13.3 µM | IC50 [6]: 5.01 µM | solubility [7]: Soluble | IC50 [8]: 7.88 µM

CC(O)(CSc1ccc(F)c(F)c1)C(=O)Nc1ccc([N+](=O)[O-])cc1C(F)(F)F (stereo unspecified)
IC50 [3]: 83 µM | solubility [4]: Soluble | IC50 [5]: 100 µM | IC50 [6]: 83.6 µM | solubility [7]: Soluble | IC50 [8]: 100 µM

CC1(C)C(=O)N(c2cccc(C(F)(F)F)c2)C(=O)N1c1ccc([N+](=O)[O-])c(C(F)(F)F)c1
IC50 [3]: 15.2 µM | solubility [4]: Soluble | IC50 [5]: 100 µM | IC50 [6]: 100 µM | solubility [7]: Soluble | IC50 [8]: 100 µM

C[C@](O)(CSc1ccc(OC(F)(F)F)cc1)C(=O)Nc1ccc(C#N)c(C(F)(F)F)c1
IC50 [3]: 19.8 µM | solubility [4]: Soluble | IC50 [5]: 17.4 µM | IC50 [6]: 28.8 µM | solubility [7]: Soluble | IC50 [8]: 29.8 µM

CC(O)(COc1cccc(C(F)(F)F)c1)C(=O)Nc1ccc(C#N)c(C(F)(F)F)c1 (stereo unspecified)
IC50 [3]: 8.31 µM | solubility [4]: Soluble | IC50 [5]: 9.04 µM | IC50 [6]: 5.89 µM | solubility [7]: Soluble | IC50 [8]: 10.8 µM

CC(O)(CS(=O)(=O)c1cccc(C(F)(F)F)c1)C(=O)Nc1ccc([N+](=O)[O-])cc1C(F)(F)F (stereo unspecified)
IC50 [3]: 16.8 µM | solubility [4]: Soluble | IC50 [5]: 38.7 µM | IC50 [6]: 18.1 µM | solubility [7]: Soluble | IC50 [8]: 32 µM

CC(O)(CSc1ccc(C(F)(F)F)cc1)C(=O)Nc1ccc([N+](=O)[O-])c(C(F)(F)F)c1 (stereo unspecified)
IC50 [3]: 28.7 µM | solubility [4]: Soluble | IC50 [5]: 21.2 µM | IC50 [6]: 16.4 µM | solubility [7]: Soluble | IC50 [8]: 22.5 µM

CC(O)(CSc1cccc(C(F)(F)F)c1)C(=O)Nc1ccc([N+](=O)[O-])cc1C(F)(F)F (stereo unspecified)
IC50 [3]: 10.1 µM | solubility [4]: Soluble | IC50 [5]: 16.5 µM | IC50 [6]: 12.6 µM | solubility [7]: Soluble | IC50 [8]: 14.3 µM
